# Reference: patent publication US6884798B2, “Fungicidal agent combinations” (Bayer CropScience AG, priority 2000, dated 2005)
# Tested on: Sphaerotheca pannosa
# Experiment: Sphaerotheca test roses/curative
# Format: in vivo, Sphaerotheca pannosa on roses
# Settings: infected roses sprayed three times at 7-day intervals; application rate 100 g/ha
# Procedure: To produce a suitable preparation of active compound, a commercial formulation of active compound or active compound combination is mixed with water until the desired concentration is reached.
# To test for curative activity, roses infected with Sphaerotheca pannosa are sprayed three times, at intervals of in each case 7 days, with the preparation of active compound at the stated application rate. The plants are placed in a greenhouse at temperatures between 15° C. and 23° C. and a relative atmospheric humidity of about 70%.
# Evaluation is carried out 10 or 20 days after the third treatment. 0% means an efficacy which corresponds to that of the control, whereas an efficacy of 100% means that no infection is observed.
smiles,measurement,value
"CC(C)(C)C(O)(CCc1ccc(Cl)cc1)Cn1cncn1 (centres unmarked) [tebuconazoles, tebuconazole]",Efficacy in % 10 days after the third treatment,28.6%
same,Efficacy in % 20 days after the third treatment,26.6%
